Patent US8859584B2, “TRPV1 antagonists” (AbbVie Inc., priority 2011, dated 2014)

Columns and labels:
human TRPV1 [1] = biological target: T1, human TRPV1 (Homo sapiens, UniProt Q8NER1); experiment: Acid Activation Assay (pH 5.0, FLIPR intracellular Ca2+, recombinant HEK293 cells); assay type: cell-based; settings: percentage of maximal pH 5.0-induced response remaining; HEK293 hTRPV1; max concentration 37.5 μM
T1 construct: expressed in transfected cells
Outline: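 HEK293 cells stably expressing recombinant hTRPV1 were loaded with calcium dye for 90-120 min at 25° C and pre-treated with compound for 3 min before a pH 5.0 (DPBS/MES) challenge. Peak FLIPR fluorescence over baseline is given as percentage of the maximal pH 5.0-induced response.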

human TRPV1 [2] = biological target: T1, human TRPV1; experiment: Capsaicin Activation Assay (FLIPR intracellular Ca2+, recombinant HEK293 cells); assay type: cell-based; settings: recombinant HEK293 cells expressing hTRPV1; 50 nM capsaicin; read-out: human TRPV1 capsaicin IC50
rats [3] = experiment: Rat Acute Capsaicin-Induced Flinching Behavior; assay type: in vivo; settings: 100 μmol/kg oral, capsaicin 2.5 μg one hour after compound, five minute observation
Method: (iv) Rat Acute Capsaicin-Induced Flinching Behavior
Rats were placed in individual observation cages. Following an acclimation period of 30 minutes, selected compounds were administered orally at a dose of 100 μmol/kg orally in a vehicle (10% ethanol/20% Tween 80/70% polyethylene glycol-400) at a volume of 2 mL/kg. One hour after administration of the compound, 2.5 μg of capsaicin in a 10 μL solution of 10% ethanol/90% hydroxypropyl-β-cyclodextrin was injected subcutaneously into the dorsal aspect of the right hind paw. The observation cage was then suspended above mirrors in order to facilitate observation. […] The number of flinching behaviors of the injured paw was recorded during the five minute observation period (Gilchrist, H. D.; Allard, B. L.; Simone, D. A.; Enhanced withdrawal responses to heat and mechanical stimuli following intraplantar injection of capsaicin in rats. Pain, 1996, 67, 179-188). The percent reduction in the number of flinching behaviors produced from oral administration of the test compounds relative to control-treated animals (% effect) is reported in Table 2.

rats [4] = experiment: Sodium Iodoacetate-Induced Knee Joint Osteoarthritic Pain Model (hind limb grip force); assay type: in vivo; settings: rat, 1 hour after administration, 20 days after sodium iodoacetate, read-out: % effect (% return to normalcy of hind limb grip force); for inhibition in vivo at 30 µmol/kg: 30 μmol/kg po single dose; for inhibition in vivo at 100 µmol/kg: 100 μmol/kg po single dose
Method: (v) Sodium Iodoacetate-Induced Knee Joint Osteoarthritic Pain Model
Unilateral knee joint osteoarthritis was induced in the rats by a single intra-articular (i.a.) injection of sodium iodoacetate (3 mg in 0.05 mL sterile isotonic saline) into the right knee joint cavity under light isoflurane anesthesia using a 26G needle. […] Pain behavioral assessment of hind limb grip force was conducted by recording the maximum compressive force exerted on the hind limb strain gauge setup, in a commercially available grip force measurement system (Columbus Instruments, Columbus, Ohio). The grip force data was converted to a maximum hindlimb cumulative compressive force (CFmax) (gram force)/kg body weight for each animal. The analgesic effects of test compounds were determined 20 days following the i.a. injection of sodium iodoacetate. The vehicle control group for each compound being tested was assigned 0% whereas the age matched naïve group was assigned as being 100% (normal). The % effect for each dose group was then expressed as % return to normalcy compared to the naïve group. Test compounds were administered orally in 10% ethanol/20% Tween 80/70% polyethylene glycol-400 vehicle at a volume of 2 mL/kg. The assessment of the analgesic effects of test compounds was made 1 hour following oral administration. The assessment of the analgesic effects of test compounds can be made following a single dose or following repeated administration wherein the frequency of dosing is 1 to 2 times daily. The duration of such repeated daily dosing may last for any time greater than one day. A typical duration of repeated daily dosing is about 5 days to about 12 days.

rats [5] = experiment: Rat Tail Immersion (noxious thermosensation, 55° C. water bath); assay type: in vivo; settings: morphine 6 mg/kg i.p. in saline, relative to vehicle control
Method: (iii) Rat Tail Immersion Protocol:
Compounds were tested for their effects on noxious thermosensation using the tail immersion assay. Testing was performed one hour following oral administration of 100 μmol/kg of the compound in 10% ethanol/20% Tween-80/70% PEG-400 (2 mL/kg). Mophine (6 mg/kg) was administered interperitoneally (i.p.) using saline (2 mL/kg) as the vehicle. For testing, a circulating water bath was heated to 55° C. Thirty to sixty minutes post dosing, the rats were handled for a few seconds to calm them down and then cupped with their back against the testers hand at a slight angle with head facing away from tester. With rat in one hand and a 0.01 second stopwatch in the other hand, the tail was quickly immersed 6-8 cm in water bath or to a distance leaving 2-3 cm of tail out of water. The timer was started simultaneously. […] This response latency (in seconds) was recorded. Process was repeated 3 times with 3-4 minutes between readings for a final average.
For a given compound, a percent increase in the average response latency (in seconds) for tail withdrawal relative to a vehicle control was determined % increase=[(tc−tv)/tv]×100% tc=response time (in seconds) with oral dosing of compounds tv=response time (in seconds) with oral dosing of vehicle […]
Table 1 reports the % increase in tail withdrawal latency measured for the compounds tested. […]

T1 sequence (Q8NER1 whole entry): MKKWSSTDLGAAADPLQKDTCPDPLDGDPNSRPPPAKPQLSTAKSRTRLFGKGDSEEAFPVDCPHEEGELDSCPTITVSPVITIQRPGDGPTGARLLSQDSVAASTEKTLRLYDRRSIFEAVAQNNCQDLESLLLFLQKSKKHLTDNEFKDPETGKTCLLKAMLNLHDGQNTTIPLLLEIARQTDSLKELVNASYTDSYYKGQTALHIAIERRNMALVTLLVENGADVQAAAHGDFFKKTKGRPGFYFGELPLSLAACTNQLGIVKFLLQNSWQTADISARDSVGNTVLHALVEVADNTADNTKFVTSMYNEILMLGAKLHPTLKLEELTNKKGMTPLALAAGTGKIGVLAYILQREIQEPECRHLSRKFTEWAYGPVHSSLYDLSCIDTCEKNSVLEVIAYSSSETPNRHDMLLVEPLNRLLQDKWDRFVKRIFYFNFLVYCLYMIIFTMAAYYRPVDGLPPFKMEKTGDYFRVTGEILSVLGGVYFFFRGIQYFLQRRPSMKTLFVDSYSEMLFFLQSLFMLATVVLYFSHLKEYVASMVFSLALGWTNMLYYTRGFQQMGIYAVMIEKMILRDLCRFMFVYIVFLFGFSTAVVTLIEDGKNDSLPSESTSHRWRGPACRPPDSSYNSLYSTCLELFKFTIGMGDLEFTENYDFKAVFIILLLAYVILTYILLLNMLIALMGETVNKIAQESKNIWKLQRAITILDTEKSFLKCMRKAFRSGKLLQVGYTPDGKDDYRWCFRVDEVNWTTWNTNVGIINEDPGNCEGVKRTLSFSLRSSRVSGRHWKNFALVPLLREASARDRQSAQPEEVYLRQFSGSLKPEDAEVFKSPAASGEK

Row | SMILES | human TRPV1 H+ (max % remain) (human TRPV1 [1]) | IC50 (human TRPV1 [2]) | % effect (percent reduction in number of flinching behaviors relative to control-treated animals) (rats [3]) | inhibition in vivo at 30 µmol/kg (rats [4]) | inhibition in vivo at 100 µmol/kg (rats [4]) | % Increase in Tail Withdrawal Latency (rats [5]) | inhibition in vivo at 17 µmol/kg (rats [4]; 17 μmol/kg po single dose)
1 | CC1(C)C[C@@H](NC(=O)Nc2cccc3c2C[C@H](O)C3)c2ccc(F)c(Cl)c2O1 [Example 12, 1-[(4R)-8-chloro-7-fluoro-2,2-dimethyl-3,4-dihydro-2H-chromen-4-yl]-3-[(2R)-2-hydroxy-2,3-dihydro-1H-inden-4-yl]urea] | 77% | 36 nM | 53% |  |  |  | 
2 | C[C@]1(CF)C[C@@H](NC(=O)Nc2cccc3c2C[C@H](O)C3)c2ccc(C(F)(F)F)cc2O1 [Example 43, 1-[(2R,4R)-2-(fluoromethyl)-2-methyl-7-(trifluoromethyl)-3,4-dihydro-2H-chromen-4-yl]-3-[(2R)-2-hydroxy-2,3-dihydro-1H-inden-4-yl]urea] | 48% | 18 nM |  | 38% |  |  | 
3 | CC1(C)C[C@@H](NC(=O)Nc2cccc3c2C[C@H](O)C3)c2ccc(F)c(F)c2O1 [Example 9, 1-[(4R)-7,8-difluoro-2,2-dimethyl-3,4-dihydro-2H-chromen-4-yl]-3-[(2R)-2-hydroxy-2,3-dihydro-1H-inden-4-yl]urea] | 82% | 60 nM | 76% |  | 67% |  | 
4 | CN1CC[C@]23c4c5ccc(O)c4O[C@H]2[C@@H](O)C=C[C@H]3[C@H]1C5 [Morphine] |  |  |  |  |  | +++ (greater than or equal to 25% increase) | 
5 | O=C(Nc1cccc2c1C[C@H](O)C2)N[C@@H]1CCOc2cc(OC(F)(F)F)ccc21 [Example 14, 1-[(2R)-2-hydroxy-2,3-dihydro-1H-inden-4-yl]-3-[(4R)-7-(trifluoromethoxy)-3,4-dihydro-2H-chromen-4-yl]urea] | 48% | 44 nM |  | 54% |  |  | 
6 | O=C(Nc1cccc2c1C[C@H](O)C2)N[C@@H]1CC(CF)(CF)Oc2cc(C(F)(F)F)ccc21 [Example 7, 1-[(4R)-2,2-bis(fluoromethyl)-7-(trifluoromethyl)-3,4-dihydro-2H-chromen-4-yl]-3-[(2R)-2-hydroxy-2,3-dihydro-1H-inden-4-yl]urea] | 48% | 47 nM | 94% |  | 68% |  | 
7 | CC1(C)C[C@@H](NC(=O)Nc2cccc3c2C[C@H](O)C3)c2ccc(Cl)c(F)c2O1 [Example 10, 1-[(4R)-7-chloro-8-fluoro-2,2-dimethyl-3,4-dihydro-2H-chromen-4-yl]-3-[(2R)-2-hydroxy-2,3-dihydro-1H-inden-4-yl]urea] | 74% | 27 nM |  |  |  |  | 49%
8 | O=C(Nc1cccc2c1C[C@H](O)C2)N[C@@H]1CCc2cc(C(F)(F)F)ccc21 [Example 40, 1-[(2R)-2-hydroxy-2,3-dihydro-1H-inden-4-yl]-3-[(1R)-5-(trifluoromethyl)-2,3-dihydro-1H-inden-1-yl]urea] | 30% | 7 nM |  | 57% |  |  | 
9 | O=C(Nc1cccc2c1C[C@H](O)C2)N[C@@H]1CC(CF)(CF)Oc2cc(Cl)ccc21 [Example 4, 1-[(4R)-7-chloro-2,2-bis(fluoromethyl)-3,4-dihydro-2H-chromen-4-yl]-3-[(2R)-2-hydroxy-2,3-dihydro-1H-inden-4-yl]urea] | 57% | 40 nM | 54% |  | 67% |  | 
10 | CC1(C)C[C@@H](NC(=O)Nc2cccc3c2C[C@H](O)C3)c2ccc(F)cc2O1 [Example 5, 1-[(4R)-7-fluoro-2,2-dimethyl-3,4-dihydro-2H-chromen-4-yl]-3-[(2R)-2-hydroxy-2,3-dihydro-1H-inden-4-yl]urea] | 76% | 32 nM |  |  | 57% |  | 
11 | CC1(C)C[C@@H](NC(=O)Nc2cccc3c2C[C@H](O)C3)c2ccc(Cl)cc2O1 [Example 13, 1-[(4R)-7-chloro-2,2-dimethyl-3,4-dihydro-2H-chromen-4-yl]-3-[(2R)-2-hydroxy-2,3-dihydro-1H-inden-4-yl]urea] | 62% | 28 nM |  | 52% |  |  | 
12 | CC1(C)C[C@@H](NC(=O)Nc2cccc3c2C[C@@H](O)C3)c2ccc(F)c(Cl)c2O1 [Example 36, 1-[(4R)-8-chloro-7-fluoro-2,2-dimethyl-3,4-dihydro-2H-chromen-4-yl]-3-[(2S)-2-hydroxy-2,3-dihydro-1H-inden-4-yl]urea] | 32% | 26 nM | 71% |  | 46% |  | 
13 | CC1(C)C[C@@H](NC(=O)Nc2cccc3c2C[C@@H](O)C3)c2cccc(OC(F)(F)F)c2O1 [Example 88, 1-[(4R)-2,2-dimethyl-8-(trifluoromethoxy)-3,4-dihydro-2H-chromen-4-yl]-3-[(2S)-2-hydroxy-2,3-dihydro-1H-inden-4-yl]urea] | 23% | 16 nM | 69% |  |  |  | 
